Source: PubChem BioAssay AID1918948 (Molecular Pharmacology Branch, DTP, NCI, 2023)

Tested on: K-562 leukemia growth, % test/control
Assay: Anticancer human tumor K-562 cell line growth inhibition;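 for viability, T/C: 100% = DMSO vehicle wells and lower values mean fewer viable cells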
Settings: spheroids with HUVEC and MSC; for IC50: curve of first compound; for viability, T/C: stronger effect = lower value; active = viability on the fitted dose curve at most 10% of control; inactive = the rest
Summary of the method: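 Complex spheroids of tumor cells with HUVEC and human MSCs, exposed to iadademstat combined with other agents. Each agent tested in half-log steps from near clinical Cmax (else 10 microM top), DMSO ≤0.25%.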

[1] = second compound 0.1 µM, first compound 0.000316 µM
[2] = second compound 0.1 µM, first compound 0.001 µM
[3] = second compound 0.1 µM, first compound 0.00316 µM
[4] = second compound 0.1 µM, first compound 0.01 µM
[5] = second compound 0.1 µM, first compound 0.0316 µM
[6] = second compound 0.1 µM, first compound 0.1 µM
[7] = second compound 0.316 µM, first compound 0.000316 µM
[8] = second compound 0.316 µM, first compound 0.001 µM
[9] = second compound 0.316 µM, first compound 0.00316 µM
[10] = second compound 0.316 µM, first compound 0.01 µM
[11] = second compound 0.316 µM, first compound 0.0316 µM
[12] = second compound 0.316 µM, first compound 0.1 µM
[13] = second compound 1 µM, first compound 0.000316 µM
[14] = second compound 1 µM, first compound 0.001 µM
[15] = second compound 1 µM, first compound 0.00316 µM
[16] = second compound 1 µM, first compound 0.01 µM
[17] = second compound 1 µM, first compound 0.0316 µM
[18] = second compound 1 µM, first compound 0.1 µM
[19] = second compound 3.16 µM, first compound 0.000316 µM
[20] = second compound 3.16 µM, first compound 0.001 µM
[21] = second compound 3.16 µM, first compound 0.00316 µM
[22] = second compound 3.16 µM, first compound 0.01 µM
[23] = second compound 3.16 µM, first compound 0.0316 µM
[24] = second compound 3.16 µM, first compound 0.1 µM
[25] = second compound 10 µM, first compound 0.000316 µM
[26] = second compound 10 µM, first compound 0.001 µM
[27] = second compound 10 µM, first compound 0.00316 µM
[28] = second compound 10 µM, first compound 0.01 µM
[29] = second compound 10 µM, first compound 0.0316 µM
[30] = second compound 10 µM, first compound 0.1 µM

CC(C)CC(NC(=O)C(Cc1ccccc1)NC(=O)c1cnccn1)B(O)O (stereo not given) + NC1CC1c1ccc(-c2cccc(O)c2)cc1
0.525 nM: IC50 (second compound 10 µM)
inactive: viability, T/C [1] 103% | viability, T/C [7] 105% | viability, T/C [13] 109% | viability, T/C [19] 102% | viability, T/C [25] 87.7%
0.585 nM: IC50 (second compound 0.1 µM)
0.601 nM: IC50 (second compound 1 µM)
active: viability, T/C [2] 3.66% | viability, T/C [3] 0.7% | viability, T/C [4] 0.61% | viability, T/C [5] 0.46% | viability, T/C [6] 0.42% | viability, T/C [8] 3.12% | viability, T/C [9] 0.63% | viability, T/C [10] 0.53% | viability, T/C [11] 0.48% | viability, T/C [12] 0.47% | viability, T/C [14] 3.33% | viability, T/C [15] 0.63% | viability, T/C [16] 0.53% | viability, T/C [17] 0.39% | viability, T/C [18] 0.56% | viability, T/C [20] 2.37% | viability, T/C [21] 0.61% | viability, T/C [22] 0.46% | viability, T/C [23] 0.43% | viability, T/C [24] 0.44% | viability, T/C [26] 2.01% | viability, T/C [27] 0.5% | viability, T/C [28] 0.46% | viability, T/C [29] 0.43% | viability, T/C [30] 0.39%
0.576 nM: IC50 (second compound 3.16 µM)
0.588 nM: IC50 (second compound 0.316 µM)

CC(C)CC(NC(=O)CNC(=O)c1cc(Cl)ccc1Cl)B1OC(=O)CC(CC(=O)O)(C(=O)O)O1 (stereo not given) + NC1CC1c1ccc(-c2cccc(O)c2)cc1
6.56 nM: IC50 (second compound 10 µM)
12.7 nM: IC50 (second compound 0.316 µM)
9.67 nM: IC50 (second compound 1 µM)
7.83 nM: IC50 (second compound 3.16 µM)
14.2 nM: IC50 (second compound 0.1 µM)
inactive: viability, T/C [1] 110% | viability, T/C [2] 105% | viability, T/C [3] 107% | viability, T/C [4] 66.6% | viability, T/C [5] 11.4% | viability, T/C [7] 107% | viability, T/C [8] 99.7% | viability, T/C [9] 102% | viability, T/C [10] 60% | viability, T/C [13] 103% | viability, T/C [14] 96.1% | viability, T/C [15] 102% | viability, T/C [16] 48.4% | viability, T/C [19] 101% | viability, T/C [20] 96.6% | viability, T/C [21] 101% | viability, T/C [22] 36.7% | viability, T/C [25] 95.5% | viability, T/C [26] 96.8% | viability, T/C [27] 97.2% | viability, T/C [28] 23.1%
active: viability, T/C [6] 2.83% | viability, T/C [11] 10.7% | viability, T/C [12] 2.8% | viability, T/C [17] 9.51% | viability, T/C [18] 2.55% | viability, T/C [23] 9.01% | viability, T/C [24] 2.3% | viability, T/C [29] 5.77% | viability, T/C [30] 1.88%

COc1cc(Nc2ncc3c(n2)-c2ccc(Cl)cc2C(c2c(F)cccc2OC)=NC3)ccc1C(=O)O + NC1CC1c1ccc(-c2cccc(O)c2)cc1
< 3.16 nM: IC50 (second compound 0.1 µM) | IC50 (second compound 0.316 µM) | IC50 (second compound 1 µM) | IC50 (second compound 3.16 µM) | IC50 (second compound 10 µM)
inactive: viability, T/C [3] 31.1% | viability, T/C [4] 35.4% | viability, T/C [5] 35.4% | viability, T/C [6] 27.7% | viability, T/C (second compound 0.1 µM, first compound 0.316 µM) 11.1% | viability, T/C [9] 22.8% | viability, T/C [10] 27.5% | viability, T/C [11] 27.8% | viability, T/C [12] 18.3% | viability, T/C (second compound 0.316 µM, first compound 0.316 µM) 8.22% | viability, T/C [15] 20.2% | viability, T/C [16] 24.4% | viability, T/C [17] 22.4% | viability, T/C [18] 13.9% | viability, T/C [21] 15.5% | viability, T/C [22] 21% | viability, T/C [23] 21.4% | viability, T/C [24] 14% | viability, T/C [27] 10% | viability, T/C [28] 16.6% | viability, T/C [29] 20.3% | viability, T/C [30] 11.9% | viability, T/C (second compound 10 µM, first compound 0.316 µM) 6.15% | viability, T/C (second compound 10 µM, first compound 1 µM) 3.42%
active: viability, T/C (second compound 0.1 µM, first compound 1 µM) 5.75% | viability, T/C (second compound 0.316 µM, first compound 1 µM) 4.56% | viability, T/C (second compound 1 µM, first compound 0.316 µM) 6.56% | viability, T/C (second compound 1 µM, first compound 1 µM) 4.05% | viability, T/C (second compound 3.16 µM, first compound 0.316 µM) 6.72% | viability, T/C (second compound 3.16 µM, first compound 1 µM) 4.65%

O=C(C=Cc1cccc(S(=O)(=O)Nc2ccccc2)c1)NO + NC1CC1c1ccc(-c2cccc(O)c2)cc1
212 nM: IC50 (second compound 3.16 µM)
inactive: viability, T/C (second compound 0.1 µM, first compound 0.00949 µM) 106% | viability, T/C (second compound 0.1 µM, first compound 0.03 µM) 103% | viability, T/C (second compound 0.1 µM, first compound 0.0949 µM) 102% | viability, T/C (second compound 0.1 µM, first compound 0.3 µM) 5.9% | viability, T/C (second compound 0.1 µM, first compound 0.949 µM) 2.2% | viability, T/C (second compound 0.1 µM, first compound 3 µM) 104% | viability, T/C (second compound 0.316 µM, first compound 0.00949 µM) 102% | viability, T/C (second compound 0.316 µM, first compound 0.03 µM) 105% | viability, T/C (second compound 0.316 µM, first compound 0.0949 µM) 96.9% | viability, T/C (second compound 0.316 µM, first compound 0.3 µM) 4.4% | viability, T/C (second compound 0.316 µM, first compound 0.949 µM) 1.16% | viability, T/C (second compound 0.316 µM, first compound 3 µM) 99.1% | viability, T/C (second compound 1 µM, first compound 0.00949 µM) 100% | viability, T/C (second compound 1 µM, first compound 0.03 µM) 102% | viability, T/C (second compound 1 µM, first compound 0.0949 µM) 95.6% | viability, T/C (second compound 1 µM, first compound 0.3 µM) 3.61% | viability, T/C (second compound 1 µM, first compound 0.949 µM) 0.8% | viability, T/C (second compound 1 µM, first compound 3 µM) 96.4% | viability, T/C (second compound 3.16 µM, first compound 0.00949 µM) 98.5% | viability, T/C (second compound 3.16 µM, first compound 0.03 µM) 101% | viability, T/C (second compound 3.16 µM, first compound 0.0949 µM) 89.8% | viability, T/C (second compound 3.16 µM, first compound 0.3 µM) 2.99% | viability, T/C (second compound 3.16 µM, first compound 0.949 µM) 1.26% | viability, T/C (second compound 3.16 µM, first compound 3 µM) 94.5% | viability, T/C (second compound 10 µM, first compound 0.00949 µM) 84.5% | viability, T/C (second compound 10 µM, first compound 0.03 µM) 82% | viability, T/C (second compound 10 µM, first compound 0.0949 µM) 59.1% | viability, T/C (second compound 10 µM, first compound 0.3 µM) 2.72% | viability, T/C (second compound 10 µM, first compound 0.949 µM) 0.89% | viability, T/C (second compound 10 µM, first compound 3 µM) 93.5%
227 nM: IC50 (second compound 0.316 µM)
240 nM: IC50 (second compound 0.1 µM)
221 nM: IC50 (second compound 1 µM)
140 nM: IC50 (second compound 10 µM)
